Results: the OligoGym collection
Oligonucleotides are given in HELM: sugar(base)linkage, 5' to 3'; d 2'-deoxyribose, r ribose, m 2'-O-methylribose, p phosphate. ss, as = sense and antisense strand

target: CDC34; assay: reporter assay of Huesken 2005; conditions: siRNA
Also: test concentration or dose not given here.

In order of rising normalised inhibition (eCFP-eYFP dual reporter):
1. RNA1{r(U)p.r(G)p.r(G)p.r(C)p.r(A)p.r(C)p.r(C)p.r(C)p.r(U)p.r(A)p.r(A)p.r(C)p.r(A)p.r(U)p.r(C)p.r(U)p.r(A)p.r(C)p.r(G)p.d(T)p.d(T)}|RNA2{r(C)p.r(G)p.r(U)p.r(A)p.r(G)p.r(A)p.r(U)p.r(G)p.r(U)p.r(U)p.r(A)p.r(G)p.r(G)p.r(G)p.r(U)p.r(G)p.r(C)p.r(C)p.r(A)p.d(C)p.d(A)}$$$RNA1{StrandType:ss}|RNA2{StrandType:as}$  25.1%
2. RNA1{r(G)p.r(G)p.r(G)p.r(C)p.r(G)p.r(G)p.r(C)p.r(U)p.r(A)p.r(C)p.r(U)p.r(U)p.r(C)p.r(A)p.r(A)p.r(G)p.r(G)p.r(C)p.r(G)p.d(T)p.d(T)}|RNA2{r(C)p.r(G)p.r(C)p.r(C)p.r(U)p.r(U)p.r(G)p.r(A)p.r(A)p.r(G)p.r(U)p.r(A)p.r(G)p.r(C)p.r(C)p.r(G)p.r(C)p.r(C)p.r(C)p.d(T)p.d(C)}$$$RNA1{StrandType:ss}|RNA2{StrandType:as}$  29.8%
3. RNA1{r(G)p.r(C)p.r(C)p.r(C)p.r(G)p.r(A)p.r(C)p.r(G)p.r(A)p.r(G)p.r(G)p.r(G)p.r(C)p.r(U)p.r(C)p.r(A)p.r(G)p.r(A)p.r(C)p.d(T)p.d(T)}|RNA2{r(G)p.r(U)p.r(C)p.r(U)p.r(G)p.r(A)p.r(G)p.r(C)p.r(C)p.r(C)p.r(U)p.r(C)p.r(G)p.r(U)p.r(C)p.r(G)p.r(G)p.r(G)p.r(C)p.d(G)p.d(C)}$$$RNA1{StrandType:ss}|RNA2{StrandType:as}$  33.6%
4. RNA1{r(G)p.r(C)p.r(U)p.r(G)p.r(C)p.r(C)p.r(C)p.r(U)p.r(C)p.r(A)p.r(G)p.r(A)p.r(G)p.r(A)p.r(G)p.r(G)p.r(U)p.r(G)p.r(G)p.d(T)p.d(T)}|RNA2{r(C)p.r(C)p.r(A)p.r(C)p.r(C)p.r(U)p.r(C)p.r(U)p.r(C)p.r(U)p.r(G)p.r(A)p.r(G)p.r(G)p.r(G)p.r(C)p.r(A)p.r(G)p.r(C)p.d(T)p.d(C)}$$$RNA1{StrandType:ss}|RNA2{StrandType:as}$  39.3%
5. RNA1{r(G)p.r(A)p.r(U)p.r(C)p.r(U)p.r(A)p.r(U)p.r(A)p.r(C)p.r(A)p.r(A)p.r(C)p.r(U)p.r(G)p.r(G)p.r(G)p.r(A)p.r(G)p.r(G)p.d(T)p.d(T)}|RNA2{r(C)p.r(C)p.r(U)p.r(C)p.r(C)p.r(C)p.r(A)p.r(G)p.r(U)p.r(U)p.r(G)p.r(U)p.r(A)p.r(U)p.r(A)p.r(G)p.r(A)p.r(U)p.r(C)p.d(G)p.d(C)}$$$RNA1{StrandType:ss}|RNA2{StrandType:as}$  41.7%
6. RNA1{r(G)p.r(A)p.r(C)p.r(C)p.r(A)p.r(U)p.r(U)p.r(C)p.r(U)p.r(C)p.r(C)p.r(U)p.r(G)p.r(A)p.r(G)p.r(U)p.r(G)p.r(U)p.r(G)p.d(T)p.d(T)}|RNA2{r(C)p.r(A)p.r(C)p.r(A)p.r(C)p.r(U)p.r(C)p.r(A)p.r(G)p.r(G)p.r(A)p.r(G)p.r(A)p.r(A)p.r(U)p.r(G)p.r(G)p.r(U)p.r(C)p.d(C)p.d(T)}$$$RNA1{StrandType:ss}|RNA2{StrandType:as}$  44.9%
7. RNA1{r(G)p.r(G)p.r(G)p.r(G)p.r(C)p.r(U)p.r(G)p.r(C)p.r(A)p.r(G)p.r(G)p.r(A)p.r(A)p.r(G)p.r(A)p.r(G)p.r(C)p.r(C)p.r(G)p.d(T)p.d(T)}|RNA2{r(C)p.r(G)p.r(G)p.r(C)p.r(U)p.r(C)p.r(U)p.r(U)p.r(C)p.r(C)p.r(U)p.r(G)p.r(C)p.r(A)p.r(G)p.r(C)p.r(C)p.r(C)p.r(C)p.d(T)p.d(T)}$$$RNA1{StrandType:ss}|RNA2{StrandType:as}$  47.6%
8. RNA1{r(G)p.r(A)p.r(C)p.r(G)p.r(A)p.r(G)p.r(G)p.r(G)p.r(C)p.r(U)p.r(C)p.r(A)p.r(G)p.r(A)p.r(C)p.r(C)p.r(U)p.r(C)p.r(U)p.d(T)p.d(T)}|RNA2{r(A)p.r(G)p.r(A)p.r(G)p.r(G)p.r(U)p.r(C)p.r(U)p.r(G)p.r(A)p.r(G)p.r(C)p.r(C)p.r(C)p.r(U)p.r(C)p.r(G)p.r(U)p.r(C)p.d(G)p.d(G)}$$$RNA1{StrandType:ss}|RNA2{StrandType:as}$  51.7%
9. RNA1{r(G)p.r(G)p.r(U)p.r(G)p.r(G)p.r(A)p.r(C)p.r(G)p.r(C)p.r(G)p.r(G)p.r(A)p.r(G)p.r(C)p.r(G)p.r(U)p.r(G)p.r(A)p.r(C)p.d(T)p.d(T)}|RNA2{r(G)p.r(U)p.r(C)p.r(A)p.r(C)p.r(G)p.r(C)p.r(U)p.r(C)p.r(C)p.r(G)p.r(C)p.r(G)p.r(U)p.r(C)p.r(C)p.r(A)p.r(C)p.r(C)p.d(T)p.d(T)}$$$RNA1{StrandType:ss}|RNA2{StrandType:as}$  53.4%
10. RNA1{r(G)p.r(G)p.r(A)p.r(A)p.r(G)p.r(G)p.r(A)p.r(U)p.r(C)p.r(G)p.r(G)p.r(G)p.r(A)p.r(G)p.r(U)p.r(A)p.r(C)p.r(A)p.r(C)p.d(T)p.d(T)}|RNA2{r(G)p.r(U)p.r(G)p.r(U)p.r(A)p.r(C)p.r(U)p.r(C)p.r(C)p.r(C)p.r(G)p.r(A)p.r(U)p.r(C)p.r(C)p.r(U)p.r(U)p.r(C)p.r(C)p.d(C)p.d(C)}$$$RNA1{StrandType:ss}|RNA2{StrandType:as}$  56.5%
11. RNA1{r(G)p.r(C)p.r(G)p.r(C)p.r(C)p.r(U)p.r(C)p.r(A)p.r(A)p.r(G)p.r(U)p.r(U)p.r(C)p.r(C)p.r(C)p.r(C)p.r(A)p.r(U)p.r(C)p.d(T)p.d(T)}|RNA2{r(G)p.r(A)p.r(U)p.r(G)p.r(G)p.r(G)p.r(G)p.r(A)p.r(A)p.r(C)p.r(U)p.r(U)p.r(G)p.r(A)p.r(G)p.r(G)p.r(C)p.r(G)p.r(C)p.d(G)p.d(C)}$$$RNA1{StrandType:ss}|RNA2{StrandType:as}$  58%
12. RNA1{r(G)p.r(G)p.r(A)p.r(A)p.r(G)p.r(C)p.r(A)p.r(G)p.r(G)p.r(U)p.r(C)p.r(C)p.r(U)p.r(G)p.r(G)p.r(G)p.r(G)p.r(A)p.r(C)p.d(T)p.d(T)}|RNA2{r(G)p.r(U)p.r(C)p.r(C)p.r(C)p.r(C)p.r(A)p.r(G)p.r(G)p.r(A)p.r(C)p.r(C)p.r(U)p.r(G)p.r(C)p.r(U)p.r(U)p.r(C)p.r(C)p.d(G)p.d(G)}$$$RNA1{StrandType:ss}|RNA2{StrandType:as}$  58.4%
13. RNA1{r(G)p.r(A)p.r(C)p.r(G)p.r(A)p.r(G)p.r(G)p.r(G)p.r(C)p.r(G)p.r(A)p.r(U)p.r(C)p.r(U)p.r(A)p.r(U)p.r(A)p.r(C)p.r(A)p.d(T)p.d(T)}|RNA2{r(U)p.r(G)p.r(U)p.r(A)p.r(U)p.r(A)p.r(G)p.r(A)p.r(U)p.r(C)p.r(G)p.r(C)p.r(C)p.r(C)p.r(U)p.r(C)p.r(G)p.r(U)p.r(C)p.d(C)p.d(A)}$$$RNA1{StrandType:ss}|RNA2{StrandType:as}$  64.3%
14. RNA1{r(G)p.r(A)p.r(C)p.r(U)p.r(A)p.r(C)p.r(C)p.r(C)p.r(A)p.r(U)p.r(A)p.r(C)p.r(U)p.r(C)p.r(U)p.r(C)p.r(C)p.r(A)p.r(C)p.d(T)p.d(T)}|RNA2{r(G)p.r(U)p.r(G)p.r(G)p.r(A)p.r(G)p.r(A)p.r(G)p.r(U)p.r(A)p.r(U)p.r(G)p.r(G)p.r(G)p.r(U)p.r(A)p.r(G)p.r(U)p.r(C)p.d(G)p.d(A)}$$$RNA1{StrandType:ss}|RNA2{StrandType:as}$  65.9%
15. RNA1{r(U)p.r(G)p.r(A)p.r(U)p.r(C)p.r(U)p.r(C)p.r(C)p.r(C)p.r(U)p.r(C)p.r(C)p.r(U)p.r(G)p.r(A)p.r(A)p.r(C)p.r(G)p.r(A)p.d(T)p.d(T)}|RNA2{r(U)p.r(C)p.r(G)p.r(U)p.r(U)p.r(C)p.r(A)p.r(G)p.r(G)p.r(A)p.r(G)p.r(G)p.r(G)p.r(A)p.r(G)p.r(A)p.r(U)p.r(C)p.r(A)p.d(C)p.d(A)}$$$RNA1{StrandType:ss}|RNA2{StrandType:as}$  70%
16. RNA1{r(G)p.r(A)p.r(G)p.r(U)p.r(A)p.r(C)p.r(U)p.r(G)p.r(C)p.r(G)p.r(U)p.r(G)p.r(A)p.r(A)p.r(G)p.r(A)p.r(C)p.r(C)p.r(A)p.d(T)p.d(T)}|RNA2{r(U)p.r(G)p.r(G)p.r(U)p.r(C)p.r(U)p.r(U)p.r(C)p.r(A)p.r(C)p.r(G)p.r(C)p.r(A)p.r(G)p.r(U)p.r(A)p.r(C)p.r(U)p.r(C)p.d(G)p.d(G)}$$$RNA1{StrandType:ss}|RNA2{StrandType:as}$  73.7%
17. RNA1{r(G)p.r(C)p.r(G)p.r(A)p.r(U)p.r(C)p.r(U)p.r(A)p.r(U)p.r(A)p.r(C)p.r(A)p.r(A)p.r(C)p.r(U)p.r(G)p.r(G)p.r(G)p.r(A)p.d(T)p.d(T)}|RNA2{r(U)p.r(C)p.r(C)p.r(C)p.r(A)p.r(G)p.r(U)p.r(U)p.r(G)p.r(U)p.r(A)p.r(U)p.r(A)p.r(G)p.r(A)p.r(U)p.r(C)p.r(G)p.r(C)p.d(C)p.d(C)}$$$RNA1{StrandType:ss}|RNA2{StrandType:as}$  74%
18. RNA1{r(G)p.r(A)p.r(A)p.r(G)p.r(G)p.r(A)p.r(U)p.r(C)p.r(G)p.r(G)p.r(G)p.r(A)p.r(G)p.r(U)p.r(A)p.r(C)p.r(A)p.r(C)p.r(A)p.d(T)p.d(T)}|RNA2{r(U)p.r(G)p.r(U)p.r(G)p.r(U)p.r(A)p.r(C)p.r(U)p.r(C)p.r(C)p.r(C)p.r(G)p.r(A)p.r(U)p.r(C)p.r(C)p.r(U)p.r(U)p.r(C)p.d(C)p.d(C)}$$$RNA1{StrandType:ss}|RNA2{StrandType:as}$  74.3%
19. RNA1{r(G)p.r(G)p.r(A)p.r(G)p.r(U)p.r(A)p.r(C)p.r(A)p.r(C)p.r(A)p.r(G)p.r(A)p.r(C)p.r(A)p.r(U)p.r(C)p.r(A)p.r(U)p.r(C)p.d(T)p.d(T)}|RNA2{r(G)p.r(A)p.r(U)p.r(G)p.r(A)p.r(U)p.r(G)p.r(U)p.r(C)p.r(U)p.r(G)p.r(U)p.r(G)p.r(U)p.r(A)p.r(C)p.r(U)p.r(C)p.r(C)p.d(C)p.d(G)}$$$RNA1{StrandType:ss}|RNA2{StrandType:as}$  76.6%
20. RNA1{r(G)p.r(A)p.r(U)p.r(G)p.r(U)p.r(A)p.r(C)p.r(A)p.r(G)p.r(G)p.r(A)p.r(A)p.r(G)p.r(U)p.r(G)p.r(G)p.r(A)p.r(A)p.r(A)p.d(T)p.d(T)}|RNA2{r(U)p.r(U)p.r(U)p.r(C)p.r(C)p.r(A)p.r(C)p.r(U)p.r(U)p.r(C)p.r(C)p.r(U)p.r(G)p.r(U)p.r(A)p.r(C)p.r(A)p.r(U)p.r(C)p.d(A)p.d(C)}$$$RNA1{StrandType:ss}|RNA2{StrandType:as}$  82.9%
